Reference: patent publication US10752587B2, “Homobispiperidinyl derivatives as liver X receptor beta agonists, compositions and their use” (Merck Sharp & Dohme Corp., priority 2015, dated 2020)
Read-outs that look alike come from different tables or passages of the source.

What was measured:
[1] = molecular target: T1, glutathione-S-transferase (GST) tagged LXRalpha LBD (ligand binding domain) (Homo sapiens, UniProt Q13133); assay: LanthaScreen TR-FRET Liver X Receptor Coactivator Assay, co-activator recruitment to LXRalpha LBD; assay type: biochemical; details: for EC50 / LXR alpha IP (nM): potency (Inflection Point, IP), co-activator recruitment to LXRalpha LBD, in relation to T0901317; for EC50: read-out: LXR alpha IP
T1 construct: purchased Invitrogen pv4655
T1 sequence (Q13133 209-447 limits assumed): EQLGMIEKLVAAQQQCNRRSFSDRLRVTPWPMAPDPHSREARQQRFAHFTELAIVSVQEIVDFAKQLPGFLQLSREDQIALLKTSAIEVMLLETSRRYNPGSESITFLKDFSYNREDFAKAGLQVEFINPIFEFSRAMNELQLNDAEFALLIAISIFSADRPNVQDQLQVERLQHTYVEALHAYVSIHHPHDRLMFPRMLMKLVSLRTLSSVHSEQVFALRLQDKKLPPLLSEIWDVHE
Experimental: (§1) Potency (Inflection Point, IP) and efficacy (Emax) are evaluated via compound-induced co-activator recruitment to glutathione-S-transferase (GST) tagged LXRbeta and LXRalpha LBD (ligand binding domain) proteins in relation to reference dual agonist compound T0901317 (N-(2,2,2-Trifluoroethyl)-N-[4-[2,2,2-trifluoro-1-hydroxy-1-(trifluoromethyl)ethyl] phenyl] benzenesulfonamide) using the LanthaScreen™ TR-FRET Liver X Receptor Coactivator Assays according to manufacturer's instructions (Invitrogen catalog number pv4658.pps and pv4655). While running the LanthaScreen™ TR-FRET Liver X Receptor Coactivator Assay, LXR alpha-LBD or LXR beta-LBD was added to ligand test compounds followed by addition of a mixture of a fluorescein-labelled coactivator peptide and terbium-conjugated anti-GST antibody. After an incubation period at room temperature, TR-FRET (time-resolved fluorescence resonance energy transfer) was measured using a filter-based instrument capable of TR-FRET, e.g. PerkinElmer Envision.

[2] = molecular target: T2, glutathione-S-transferase (GST) tagged LXRbeta LBD (ligand binding domain) (Homo sapiens, UniProt P55055); assay: LanthaScreen TR-FRET Liver X Receptor Coactivator Assay, co-activator recruitment to LXRbeta LBD; assay type: biochemical
T2 construct: purchased Invitrogen pv4658.pps
T2 sequence (P55055 222-460 limits assumed): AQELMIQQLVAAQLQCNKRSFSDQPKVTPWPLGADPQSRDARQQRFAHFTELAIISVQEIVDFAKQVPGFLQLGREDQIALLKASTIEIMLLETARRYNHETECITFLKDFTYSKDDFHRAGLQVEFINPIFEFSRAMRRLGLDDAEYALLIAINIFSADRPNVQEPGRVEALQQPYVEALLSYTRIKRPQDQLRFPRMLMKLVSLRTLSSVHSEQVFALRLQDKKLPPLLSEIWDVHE
Experimental: as §1

[3] = efficacy at max dose, in relation to reference dual agonist T0901317, read-out: LXR alpha Activity @ max dose (%)
[4] = efficacy at max dose, in relation to reference dual agonist T0901317, read-out: LXR beta Activity @ max dose (%)
[5] = potency (Inflection Point, IP), co-activator recruitment to LXRbeta LBD, in relation to T0901317, read-out: LXR beta IP

Row | Emax [1, 3] [%] | EC50 [1] [nM] | Emax [2, 4] [%] | EC50 [2, 5] [nM] | LXR alpha IP (nM) [1] | LXR alpha IP (Inflection Point, potency) ([1]; co-activator recruitment to GST-LXRalpha LBD, TR-FRET) | Emax ([1]; efficacy in relation to reference dual agonist T0901317, read-out: LXR alpha Activity @ max dose) [%] | EC50 ([2]; co-activator recruitment to GST-LXRbeta LBD, TR-FRET, read-out: LXR beta IP (Inflection Point, potency)) [nM] | Emax ([2]; efficacy in relation to reference dual agonist T0901317, read-out: LXR beta Activity @ max dose) [%] | Compound
1 | 20 | 714 | 64 | 69 | – | – | – | – | – | CN(C)C(=O)c1ccc(N2CCC(CC3CCN(C(=O)[C@](O)(c4cccc(C(F)(F)F)c4)C(F)(F)F)CC3)CC2)cc1 [Example 2-136, N,N-dimethyl-4-{4-[(1-{(2R)-3,3,3-trifluoro-2-hydroxy-2-[3-(trifluoromethyl)phenyl]propanoyl}piperidin-4-yl)methyl]piperidin-1-yl}benzamide]
2 | 2 | – | 18 | 30000 | NO IP | – | – | – | – | CN(C)C(=O)c1ccc(N2CCC(OC3CCN(C(=O)N4CC(O)(C(F)(F)F)C4)CC3)CC2)cc1Cl [Example 8-1, 2-chloro-4-(4-((1-(3-hydroxy-3-(trifluoromethyl)azetidine-1-carbonyl)piperidin-4-yl)oxy)piperidin-1-yl)-N,N-dimethylbenzamide]
3 | 39 | 424 | 102 | 30 | – | – | – | – | – | CNC(=O)c1ccc(N2CCC(CC3CCN(C(=O)[C@](O)(c4cccc(OC)c4)C(F)(F)C(F)(F)F)CC3)CC2)nc1Cl [Example 7-138, 2-chloro-N-methyl-6-[4-({1-[(2R)-3,3,4,4,4-pentafluoro-2-hydroxy-2-(3-methoxyphenyl)butanoyl]piperidin-4-yl}methyl)piperidin-1-yl]pyridine-3-carboxamide]
4 | 47 | 791 | 115 | 23 | – | – | – | – | – | CNC(=O)c1ccc(N2CCC(CC3CCN(C(=O)[C@](O)(c4ccccc4F)C(F)(F)F)CC3)CC2)nc1Cl [Example 7-145, 2-chloro-N-methyl-6-[4-({1-[(2R)-3,3,3-trifluoro-2-(2-fluorophenyl)-2-hydroxypropanoyl]piperidin-4-yl}methyl)piperidin-1-yl]pyridine-3-carboxamide]
5 | 3 | – | 70 | 12 | NO IP | – | – | – | – | Cc1nc(N2CCC(CC3CCN(C(=O)[C@](O)(c4cc(Cl)cc(Cl)c4)C(F)(F)F)CC3)CC2)ccc1C(=O)N(C)C [Example 7-9, 6-[4-({1-[(2R)-2-(3,5-dichlorophenyl)-3,3,3-trifluoro-2-hydroxypropanoyl]piperidin-4-yl}methyl)piperidin-1-yl]-N,N,2-trimethylpyridine-3-carboxamide]
6 | 52 | 51 | 107 | 4 | – | – | – | – | – | CN(C)C(=O)c1ccc(N2CCC(CC3CCN(C(=O)C(O)(c4cc(F)cc(Cl)c4)C(F)(F)F)CC3)CC2)nc1Cl (centres unmarked) [Example 7-109, 2-chloro-6-[4-({1-[2-(3-chloro-5-fluorophenyl)-3,3,3-trifluoro-2-hydroxypropanoyl]piperidin-4-yl}methyl)piperidin-1-yl]-N,N-dimethyl-pyridine-3-carboxamide]
7 | 0 | – | 45 | 1270 | NO IP | – | – | – | – | CCOc1cccc([C@@](O)(C(=O)N2CCC(CC3CN(c4ccc(C(=O)N(C)C)c(OC)n4)C3)CC2)C(F)(F)F)c1 [Example 7-22, 6-[3-({1-[(2R)-2-(3-ethoxyphenyl)-3,3,3-trifluoro-2-hydroxypropanoyl]piperidin-4-yl}methyl)azetidin-1-yl]-2-methoxy-N,N-dimethylpyridine-3-carboxamide]
8 | 29 | 1010 | 125 | 22 | – | – | – | – | – | CN(C)C(=O)c1ccc(N2CCC(CC3CCN(C(=O)[C@](N)(c4cc(Cl)cc(Cl)c4)C(F)(F)F)CC3)CC2)cc1Cl [Example 2-117, 4-[4-({1-[(2R)-2-amino-2-(3,5-dichloro-phenyl)-3,3,3-trifluoro-propanoyl]piperidin-4-yl}methyl)piperidin-1-yl]-2-chloro-N,N-dimethyl-benzamide]
9 | 39 | 158 | 102 | 6 | – | – | – | – | – | CN(C)C(=O)c1ccc(N2CCC(CC3CCN(C(=O)[C@](O)(c4ccccc4)C(F)(F)F)CC3)CC2)nc1Cl [Example 7-63, 2-chloro-N,N-dimethyl-6-[4-({1-[(2R)-3,3,3-trifluoro-2-hydroxy-2-phenylpropanoyl]piperidin-4-yl}methyl)piperidin-1-yl]pyridine-3-carboxamide]
10 | 27 | 1020 | 45 | 270 | – | – | – | – | – | O=C(c1ccc(N2CCC(CC3CCN(C(=O)[C@](O)(c4ccccc4)C(F)(F)F)CC3)CC2)cc1Cl)N1CCC(c2ccncc2)C1 (stereo partly drawn) [Example 4-17, (2R)-3-{4-[(1-{3-chloro-4-[(3-pyridin-4-ylpyrrolidin-1-yl)carbonyl]phenyl}piperidin-4-yl)methyl]piperidin-1-yl}-1,1,1-trifluoro-3-oxo-2-phenylpropan-2-ol]
11 | 4 | 309 | 14 | 238 | – | – | – | – | – | COc1cc(C)cc([C@@](O)(C(=O)N2CCC(CC3CCN(c4ccc(C(=O)N(C)C)c(Cl)c4)CC3)CC2)C(F)(F)F)c1 [Example 2-107, 2-chloro-N,N-dimethyl-4-[4-({1-[(2R)-3,3,3-trifluoro-2-hydroxy-2-(3-methoxy-5-methylphenyl)propanoyl]piperidin-4-yl}methyl)piperidin-1-yl]benzamide]
12 | 4 | – | 34 | 192 | NO IP | – | – | – | – | COc1cccc([C@@](O)(C(=O)N2CCC(CN3CCN(c4ccc(C(=O)N(C)C)c(Cl)c4)CC3)CC2)C(F)(F)F)c1 [Example 6-4, 2-chloro-N,N-dimethyl-4-[4-({1-[(2R)-3,3,3-trifluoro-2-hydroxy-2-(3-methoxyphenyl)propanoyl]piperidin-4-yl}methyl)piperazin-1-yl]benzamide]
13 | 22 | 75 | 124 | 5 | – | – | – | – | – | CNC(=O)c1ccc(N2CCC(CC3CCN(C(=O)[C@](O)(c4cc(F)cc(OC)c4)C(F)(F)F)CC3)CC2)nc1Cl [Example 7-132, 2-chloro-N-methyl-6-[4-({1-[(2R)-3,3,3-trifluoro-2-(3-fluoro-5-methoxyphenyl)-2-hydroxypropanoyl]piperidin-4-yl}methyl)piperidin-1-yl] pyridine-3-carboxamide]
14 | 12 | – | 33 | 26 | NO IP | – | – | – | – | CN(C)C(=O)c1ccc(N2CCC(CC3CCCN(C(=O)[C@](O)(c4ccccc4)C(F)(F)F)CC3)CC2)cc1Cl (stereo partly drawn) [Example 2-160, 2-chloro-N,N-dimethyl-4-[4-({1-[(2R)-3,3,3-trifluoro-2-hydroxy-2-phenyl-propanoyl]azepan-4-yl}methyl)piperidin-1-yl]benzamide]
15 | 22 | 844 | 63 | 136 | – | – | – | – | – | CN(C)C(=O)c1ccc(N2CCC(CC3CCN(C(=O)OC(C)(C)C)CC3)CC2)cc1Cl [Example 1-1, tert-butyl 4-((1-(3-chloro-4-(dimethylcarbamoyl)phenyl)piperidin-4-yl)methyl)piperidine-1-carboxylate]
16 | 38 | 951 | 88 | 16 | – | – | – | – | – | CN(C)C(=O)c1ccc(N2CCC(CC3CN(C(=O)[C@](O)(c4ccccc4)C(F)(F)F)C3)CC2)cc1Cl [Example 2-58, 2-chloro-N,N-dimethyl-4-[4-({1-[(2R)-3,3,3-trifluoro-2-hydroxy-2-phenylpropanoyl]azetidin-3-yl}methyl)piperidin-1-yl]benzamide]
17 | – | – | – | – | – | NO IP | 5 | 104 | 52 | CN(C)C(=O)c1ccc(N2CCC(CC3CCN(S(=O)(=O)c4cccc(OC(F)F)c4)CC3)CC2)cc1Cl [Example 13-10, 2-chloro-4-{4[(1-{[3-(difluoromethoxy)-phenyl]sulfonyl}-piperidin-4-yl)methyl]-piperidin-1-yl}-N,N-dimethylbenzamide]
